Among the data in the CheMixHub ionic liquid set are viscosity values, retold here.

The data set can be described thus: xn = mol fraction of the nth substance listed. The following applies: 101 kPa.

± gives the uncertainty stated by the source.

For `CCOS(=O)(=O)[O-].CC[N+]1(C)CCOCC1` + O, the viscosity – broadly, the internal friction of a fluid under shear – by setting is: (313.15 K, x2 = 0.193) 750 ± 140 mPa·s; (333.15 K, x2 = 0.3681) 81 ± 13 mPa·s; (333.15 K, x2 = 0.7786) 6.7 ± 1.1 mPa·s; (343.15 K, x2 = 0.6835) 9.5 ± 1.5 mPa·s.
The compound `COC[n+]1ccn(C)c1.O=S(=O)([N-]S(=O)(=O)C(F)(F)F)C(F)(F)F` + O came in with a viscosity (283 K, x1 = 0.8283) of 80.4 ± 1.9 mPa·s.
